# In patent US20060069132A1, “Azolecarboxamide herbicides” (priority 2004, published 2006):
# Experiments:
# velvetleaf [1] = experiment: Test A pre-/postemergence herbicide test; format: in vivo, Abutilon theophrasti
# In short: (§1)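 Sandy loam soil given preemergence directed spray; plants at 2 to 10 cm, one- to two-leaf stage, sprayed to runoff postemergence, compounds in non-phytotoxic solvent with surfactant. Injury rated visually versus untreated controls after about ten greenhouse days, 0 (no effect) to 100 (complete control); dash means not tested.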
# blackgrass = experiment: Test B postemergence herbicide test; format: in vivo, Alopecurus myosuroides; conditions: postemergence
# In short: (§2)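 Each value is a visual 0–100 response rating taken against controls 13 to 15 days after treatment in the greenhouse. Plants received formulated chemical postemergence at the 1- to 4-leaf stage or, in flooded paddy, at the 2-leaf stage.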
# wild oat = experiment: Test B postemergence herbicide test; format: in vivo, Avena fatua; conditions: postemergence
# In short: (§3)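 Postemergence plants were sprayed with formulated test chemicals at 2 to 18 cm height (1- to 4-leaf stage); paddy species were grown to the 2-leaf stage. After 13 to 15 days in a greenhouse, injury was rated visually against untreated controls on a 0–100 scale (0 = no effect, 100 = complete control).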
# ducksalad = experiment: Test B flooded paddy test; format: in vivo, Heteranthera limosa; conditions: 1000 g ai/ha, scale 0 to 100 (0 no effect, 100 complete control)
# In short: as §2
# wheat = experiment: Test B postemergence herbicide test; format: in vivo, Triticum aestivum; set-up: key to Wheat plant response rating: 0 = no effect, 100 = complete control; conditions: postemergence
# In short: as §3
# morningglory [2] = experiment: Test B pre-/postemergence herbicide test; format: in vivo, Ipomoea coccinea; conditions: for Morningglory plant response rating: postemergence
# In short: (§4)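 Evaluation is visual, comparing treated with control plants on a scale where 0 means no effect and 100 means full control. Treatments were preemergence, or postemergence on seedlings 2–18 cm tall, and held 13–15 days in the greenhouse.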
# [3] = system: small flower umbrella sedge; experiment: Test B flooded paddy test; format: in vivo, Cyperus difformis; conditions: 1000 g ai/ha, scale 0 to 100 (0 no effect, 100 complete control)
# In short: as §2
# rice [4] = experiment: Test B flooded paddy test; format: in vivo, Oryza sativa; conditions: 1000 g ai/ha, scale 0 to 100 (0 no effect, 100 complete control)
# In short: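 After treating 2-leaf paddy plants or 2–18 cm postemergence plants (1 to 4 leaves) with formulated chemical, researchers kept them in a greenhouse for 13–15 days. Effects were judged visually versus controls: 0 indicates none, 100 total control.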
# large crabgrass [5] = experiment: Test B pre-/postemergence herbicide test; format: in vivo, Digitaria sanguinalis; conditions: for Crabgrass, Large plant response rating: postemergence
# In short: (§5)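 Flooded paddy rice and barnyardgrass were treated at the 2-leaf stage; upland plantings received compound either on sown seed or on 1- to 4-leaf seedlings. All were kept 13–15 days in a greenhouse and scored visually, 0–100, relative to untreated plants.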
# morningglory [6] = experiment: Test A pre-/postemergence herbicide test; format: in vivo, Ipomoea spp.
# In short: as §1
# barnyardgrass [7] = experiment: Test B pre-/postemergence herbicide test; format: in vivo, Echinochloa crus-galli; conditions: for Barnyardgrass plant response rating: postemergence
# In short: as §4
# barnyardgrass [8] = experiment: Test B flooded paddy test; format: in vivo, Echinochloa crus-galli; conditions: 1000 g ai/ha, scale 0 to 100 (0 no effect, 100 complete control)
# In short: as §2
# giant foxtail [9] = experiment: Test A pre-/postemergence herbicide test; format: in vivo, Setaria faberi
# In short: as §1
# corn = experiment: Test B pre-/postemergence herbicide test; format: in vivo, Zea mays; conditions: for Corn plant response rating: postemergence
# In short: as §5
# rice [10] = experiment: Test B pre-/postemergence herbicide test; format: in vivo, Oryza sativa; conditions: 0 = no effect, 100 = complete control, preemergence
# In short: as §4
# large crabgrass [11] = experiment: Test A pre-/postemergence herbicide test; format: in vivo, Digitaria sanguinalis
# In short: as §1
# velvetleaf [12] = experiment: Test B pre-/postemergence herbicide test; format: in vivo, Abutilon theophrasti; conditions: for Velvetleaf plant response rating: postemergence
# In short: as §5
# Surinam grass = experiment: Test B pre-/postemergence herbicide test; format: in vivo, Urochloa decumbens; conditions: for Surinam Grass plant response rating: postemergence
# In short: as §5
# pigweed = experiment: Test B pre-/postemergence herbicide test; format: in vivo, Amaranthus retroflexus; conditions: for Pigweed plant response rating: postemergence
# In short: as §5
# lambsquarters = experiment: Test B pre-/postemergence herbicide test; format: in vivo, Chenopodium album; conditions: for Lambsquarters plant response rating: postemergence
# In short: as §5
# cocklebur = experiment: Test B pre-/postemergence herbicide test; format: in vivo, Xanthium strumarium; conditions: for Cocklebur plant response rating: postemergence
# In short: as §4
# redroot pigweed = experiment: Test A pre-/postemergence herbicide test; format: in vivo, Amaranthus retroflexus
# In short: as §1
# barnyardgrass [13] = experiment: Test A pre-/postemergence herbicide test; format: in vivo, Echinochloa crus-galli
# In short: as §1
# giant foxtail [14] = experiment: Test B pre-/postemergence herbicide test; format: in vivo, Setaria faberi; conditions: for Foxtail, Giant plant response rating: postemergence
# In short: as §5
# [15] = Postemergence, 500 g ai/ha, 0 to 100 scale, 0 no effect, 100 complete control
# [16] = Postemergence, 2000 g ai/ha, 0 to 100 scale, 0 no effect, 100 complete control
# [17] = Preemergence, 2000 g ai/ha, visual rating, 0 to 100 scale (0 no effect, 100 complete control)
# [18] = preemergence, 500 g ai/ha, visual injury, 0 to 100 scale (0 no effect, 100 complete control)
# [19] = 125 g ai/ha, visual rating, scale 0 (no effect) to 100 (complete control)
# [20] = 500 g ai/ha, scale 0 to 100, 0 is no effect, 100 is complete control
# [21] = 125 g ai/ha, 0 = no effect, 100 = complete control, preemergence
# [22] = 500 g ai/ha, visual rating, 0 = no effect, 100 = complete control, preemergence
structure (smiles),measurement,setting,value
CCn1nc(C(C)(C)C)cc1C(=O)Nc1ccnc(C(=O)N2CC=CC2)c1 [Compound 282],Velvetleaf plant response rating,velvetleaf [1]; [15],50
same,"Plant response rating, Velvetleaf",velvetleaf [1]; [16],50
same,Velvetleaf plant response rating,velvetleaf [1]; [17],45
same,Velvetleaf plant response rating,velvetleaf [1]; [18],20
same,Blackgrass plant response rating,blackgrass; [19],20
same,Blackgrass plant response rating,blackgrass; [20],30
same,"Oat, Wild plant response rating",wild oat; [19],0
same,"Oat, Wild plant response rating",wild oat; [20],20
same,Ducksalad plant response rating,ducksalad,80
same,Wheat plant response rating,wheat; [19],30
same,Wheat plant response rating,wheat; [20],30
same,Morningglory plant response rating (0 to 100 scale),morningglory [2]; [21],0
same,"Plant response rating, Morningglory",morningglory [2]; [22],0
same,Morningglory plant response rating,morningglory [2]; [19],10
same,Morningglory plant response rating,morningglory [2]; [20],20
same,"Sedge, Umbrella plant response rating",[3],0
same,Rice plant response rating,rice [4],20
same,"Crabgrass, Large plant response rating (0 to 100 scale)",large crabgrass [5]; [21],10
same,"Plant response rating, Crabgrass, Large",large crabgrass [5]; [22],80
same,"Crabgrass, Large plant response rating",large crabgrass [5]; [19],10
same,"Crabgrass, Large plant response rating",large crabgrass [5]; [20],10
same,Morningglory plant response rating,morningglory [6]; [15],15
same,"Plant response rating, Morningglory",morningglory [6]; [16],15
same,Morningglory plant response rating,morningglory [6]; [17],40
same,Morningglory plant response rating,morningglory [6]; [18],10
same,Barnyardgrass plant response rating (0 to 100 scale),barnyardgrass [7]; [21],30
same,"Plant response rating, Barnyardgrass",barnyardgrass [7]; [22],50
same,Barnyardgrass plant response rating,barnyardgrass [7]; [19],0
same,Barnyardgrass plant response rating,barnyardgrass [7]; [20],20
same,Barnyardgrass plant response rating,barnyardgrass [8],20
same,"Foxtail, Giant plant response rating",giant foxtail [9]; [15],20
same,"Plant response rating, Foxtail, Giant",giant foxtail [9]; [16],25
same,"Foxtail, Giant plant response rating",giant foxtail [9]; [17],40
same,"Foxtail, Giant plant response rating",giant foxtail [9]; [18],10
same,Corn plant response rating (0 to 100 scale),corn; [21],0
same,"Plant response rating, Corn",corn; [22],0
same,Corn plant response rating,corn; [19],10
same,Corn plant response rating,corn; [20],20
same,Rice plant response rating (0 to 100 scale),rice [10]; 125 g ai/ha,10
same,"Plant response rating, Rice","rice [10]; 500 g ai/ha, visual rating",40
same,"Crabgrass, Large plant response rating",large crabgrass [11]; [15],10
same,"Plant response rating, Crabgrass, Large",large crabgrass [11]; [16],25
same,"Crabgrass, Large plant response rating",large crabgrass [11]; [17],65
same,"Crabgrass, Large plant response rating",large crabgrass [11]; [18],40
same,Velvetleaf plant response rating (0 to 100 scale),velvetleaf [12]; [21],10
same,"Plant response rating, Velvetleaf",velvetleaf [12]; [22],30
same,Velvetleaf plant response rating,velvetleaf [12]; [19],10
same,Velvetleaf plant response rating,velvetleaf [12]; [20],20
same,Surinam Grass plant response rating (0 to 100 scale),Surinam grass; [21],0
same,"Plant response rating, Surinam Grass",Surinam grass; [22],20
same,Surinam Grass plant response rating,Surinam grass; [19],10
same,Surinam Grass plant response rating,Surinam grass; [20],10
same,Pigweed plant response rating (0 to 100 scale),pigweed; [21],100
same,"Plant response rating, Pigweed",pigweed; [22],100
same,Pigweed plant response rating,pigweed; [19],20
same,Pigweed plant response rating,pigweed; [20],60
same,Lambsquarters plant response rating (0 to 100 scale),lambsquarters; [21],100
same,"Plant response rating, Lambsquarters",lambsquarters; [22],100
same,Lambsquarters plant response rating,lambsquarters; [19],10
same,Lambsquarters plant response rating,lambsquarters; [20],60
same,Cocklebur plant response rating (0 to 100 scale),cocklebur; [21],0
same,"Plant response rating, Cocklebur",cocklebur; [22],0
same,Cocklebur plant response rating,cocklebur; [19],10
same,Cocklebur plant response rating,cocklebur; [20],20
same,Pigweed plant response rating,redroot pigweed; [15],75
same,"Plant response rating, Pigweed",redroot pigweed; [16],100
same,Pigweed plant response rating,redroot pigweed; [17],90
same,Pigweed plant response rating,redroot pigweed; [18],90
same,Barnyardgrass plant response rating,barnyardgrass [13]; [15],40
same,"Plant response rating, Barnyardgrass",barnyardgrass [13]; [16],80
same,Barnyardgrass plant response rating,barnyardgrass [13]; [17],75
same,Barnyardgrass plant response rating,barnyardgrass [13]; [18],30
same,"Foxtail, Giant plant response rating (0 to 100 scale)",giant foxtail [14]; [21],10
same,"Plant response rating, Foxtail, Giant",giant foxtail [14]; [22],20
same,"Foxtail, Giant plant response rating",giant foxtail [14]; [19],20
same,"Foxtail, Giant plant response rating",giant foxtail [14]; [20],20
